Measurements: patent US5932574A, “Quinazoline derivatives” (Zeneca Limited, priority 1995, dated 1999)

What was measured:
[1] = test system: human naso-pharyngeal cancer cell line KB; experiment: Inhibition of EGF-stimulated growth of human naso-pharyngeal cancer cell line KB, Test (b); assay type: cell-based; conditions: 72 h, EGF (10 ng/ml), 3 days, approximate
Description: (b) An in vitro assay which determines the ability of a test compound to inhibit the EGF-stimulated growth of the human naso-pharyngeal cancer cell line KB. […] Cell growth was determined after incubation for 3 days by the extent of metabolism of MTT tetrazolium dye to furnish a bluish colour. Cell growth was then determined in the presence of EGF (10 ng/ml) or in the presence of EGF (10 ng/ml) and a test compound at a range of concentrations. An IC50 value could then be calculated.

[2] = test system: human vulval epidermoid carcinoma cell line A-431; experiment: Inhibition of growth of A-431 xenografts in athymic nude mice, Test (c); assay type: in vivo, human xenograft in athymic nude mice (strain ONU:Alpk); conditions: daily dose of 50 mg/kg, usually oral, relative to untreated controls
Description: (c) An in-vivo assay in a group of athymic nude mice (strain ONU:Alpk) which determines the ability of a test compound (usually administered orally as a ball-milled suspension in 0.5% polysorbate) to inhibit the growth of xenografts of the human vulval epidermoid carcinoma cell line A-431. A-431 cells were maintained in culture in DMEM supplemented with 5% FCS and 2 mM glutamine. Freshly cultured cells were harvested by trypsinization and injected subcutaneously (10 million cells/0.1 ml/mouse) into both flanks of a number of donor nude mice. When sufficient tumour material was available (after approximately 9 to 14 days), fragments of tumour tissue were transplanted in the flanks of recipient nude mice (test day 0). Generally, on the seventh day after transplantation (test day 7) groups of 7 to 10 mice with similar-sized tumours were selected and dosing of the test compound was commenced. Once daily dosing of test compound was continued for a total of 13 days (test days 7 to 19 inclusive). In some studies the dosing of the test compound was continued beyond test day 19, for example to test day 26. In each case, on the following test day the animals were killed and the final tumour volume was calculated from measurements of the length and width of the tumours. Results were calculated as a percentage inhibition of tumour volume relative to untreated controls.

[3] = molecular target: T1, EGF receptor tyrosine kinase (Homo sapiens, UniProt P00533); experiment: Inhibition of EGF receptor tyrosine kinase in vitro, Test (a); assay type: biochemical; conditions: approximate
T1 construct: Receptor tyrosine kinase was obtained in partially purified form from A-431 cells (derived from human vulval carcinoma); endogenous in cells; host or cells: A-431 cells (Triton X-100 solubilised membrane fraction)
Description: (a) An in vitro assay which determines the ability of a test compound to inhibit the enzyme EGF receptor tyrosine kinase. Receptor tyrosine kinase was obtained in partially purified form from A-431 cells (derived from human vulval carcinoma) by the procedures described below which are related to those described by Carpenter et al., J. Biol. Chem., 1979, 254, 4884, Cohen et al., J. Biol. Chem., 1982, 257, 1523 and by Braun et al., J. Biol. Chem., 1984, 259, 2051.
A-431 cells were grown to confluence using Dulbecco's modified Eagle's medium (DMEM) containing 5% fetal calf serum (FCS). The obtained cells were homogenised in a hypotonic borate/EDTA buffer at pH 10.1. The homogenate was centrifuged at 400 g for 10 minutes at 0-4° C. The supernatant was centrifuged at 25,000 g for 30 minutes at 0-4° C. […]
The test compound/EGF mixture solution (5 μl) was added to the test enzyme solution (10 μl) and the mixture was incubated at 0-4° C. for 30 minutes. […] Radioactivity present in the filter paper was measured using a liquid scintillation counter (Sequence A). […]
Receptor tyrosine kinase inhibition was calculated as follows: [formula]
The extent of inhibition was then determined at a range of concentrations of test compound to give an IC50 value.

[4] = test system: human mammary carcinoma which expresses EGF receptor tyrosine kinase; conditions: in words; athymic nude mice; Toi et al., 1990; cited from earlier work
[5] = test system: another carcinoma which does not express EGF receptor tyrosine kinase; conditions: in words; Toi et al., 1990; cited from earlier work

T1 sequence (P00533 25-1210): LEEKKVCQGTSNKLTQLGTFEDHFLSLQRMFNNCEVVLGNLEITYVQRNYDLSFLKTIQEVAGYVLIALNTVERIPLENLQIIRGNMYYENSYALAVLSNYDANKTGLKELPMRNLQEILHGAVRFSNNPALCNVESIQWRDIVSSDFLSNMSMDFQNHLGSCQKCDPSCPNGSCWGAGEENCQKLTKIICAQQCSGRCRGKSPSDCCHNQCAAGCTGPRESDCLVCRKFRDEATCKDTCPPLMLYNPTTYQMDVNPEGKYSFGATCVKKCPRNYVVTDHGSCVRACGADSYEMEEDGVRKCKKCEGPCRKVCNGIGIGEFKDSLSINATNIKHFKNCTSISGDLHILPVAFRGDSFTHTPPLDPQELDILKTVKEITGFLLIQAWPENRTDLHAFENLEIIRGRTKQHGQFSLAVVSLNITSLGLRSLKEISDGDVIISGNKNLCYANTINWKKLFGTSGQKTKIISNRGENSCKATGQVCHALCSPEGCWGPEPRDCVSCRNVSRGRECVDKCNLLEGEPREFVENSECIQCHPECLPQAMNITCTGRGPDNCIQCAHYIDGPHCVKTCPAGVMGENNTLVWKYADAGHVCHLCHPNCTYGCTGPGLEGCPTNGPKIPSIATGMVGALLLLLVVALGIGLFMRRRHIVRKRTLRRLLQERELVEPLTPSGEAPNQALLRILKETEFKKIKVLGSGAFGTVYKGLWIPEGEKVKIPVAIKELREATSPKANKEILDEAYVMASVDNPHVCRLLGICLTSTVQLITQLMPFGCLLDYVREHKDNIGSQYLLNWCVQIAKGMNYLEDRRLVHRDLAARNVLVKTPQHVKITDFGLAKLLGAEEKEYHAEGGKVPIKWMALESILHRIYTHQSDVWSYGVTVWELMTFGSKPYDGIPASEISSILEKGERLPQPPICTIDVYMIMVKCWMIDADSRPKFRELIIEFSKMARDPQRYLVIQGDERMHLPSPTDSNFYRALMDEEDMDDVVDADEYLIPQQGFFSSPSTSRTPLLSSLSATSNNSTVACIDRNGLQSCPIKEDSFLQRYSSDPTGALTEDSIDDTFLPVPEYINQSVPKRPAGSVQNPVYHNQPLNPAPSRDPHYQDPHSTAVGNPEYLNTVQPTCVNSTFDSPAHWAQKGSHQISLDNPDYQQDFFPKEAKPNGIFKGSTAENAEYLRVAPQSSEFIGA

Structure (SMILES)	IC50 [1] [nM]	inhibition of tumour volume [2]	IC50 [3] [nM]	growth of transplanted human mammary carcinoma [4]	growth of carcinoma not expressing EGF receptor tyrosine kinase [5]
Fc1ccc(Nc2ncnc3ccc(OCCCN4CCOCC4)cc23)cc1F [4-(3',4'-difluoroanilino)-6-(3-morpholinopropoxy)quinazoline]	~1200	greater than 50%	–	–	–
CCN(CC)CCCOc1ccc2ncnc(Nc3ccc(F)c(Cl)c3)c2c1 [4-(3'-chloro-4'-fluoroanilino)-6-(3-diethylaminopropoxy)quinazoline]	~100	greater than 50%	~3	–	–
O=CN/C=C/c1cc(O)ccc1O [erbstatin]	–	–	–	specifically attenuates the growth	without effect on the growth
